# US20150258106A1, “METHODS FOR ACUTE AND LONG-TERM TREATMENT OF SUBSTANCE ABUSE” (DEMERX, INC., priority 2014, published 2015)
# Test: Pharmacokinetics of noribogaine in healthy volunteers, ascending single oral dose (plasma noribogaine and noribogaine glucuronide)
# Details: for AUC0-216 / AUC0-∞ / Cmax / Tmax / t1/2: healthy male volunteers, n = 6, mean (SD)
# [1] = glucuronide in plasma after single oral 30 mg noribogaine dose
# [2] = glucuronide in plasma after single oral 60 mg noribogaine dose
# [3] = plasma noribogaine glucuronide, 30 mg and 60 mg dose groups
smiles,measurement,setting,value
"CC[C@H]1C[C@@H]2C[C@H]3c4[nH]c5ccc(OC6OC(C(=O)O)C(O)C(O)C6O)cc5c4CCN(C2)[C@@H]13 (some centres unmarked) [Noribogaine glucuronide, noribogaine glucuronide]",proportion of noribogaine glucuronide Cmax and AUC relative to noribogaine,"both dose groups (30 mg, 60 mg)",3-4%
same,AUC0-216,[1],25.7 (9.1) ng · hr/ml
same,AUC0-∞,[1],25.8 (9.3) ng · hr/ml
same,Cmax,[1],1.8 (0.6) ng/ml
same,Tmax,[1],3.0 (0.6) hr
same,t1/2,[1],20.6 (4.9) hr
same,AUC0-216,[2],65.0 (21.5) ng · hr/ml
same,AUC0-∞,[2],67.1 (21.9) ng · hr/ml
same,Cmax,[2],4.1 (1.2) ng/ml
same,Tmax,[2],3.8 (1.2) hr
same,t1/2,[2],23.1 (3.0) hr
same,Mean half-life,[3],21 to 23 h
same,time of peak concentrations after noribogaine dosing,[3],3 to 4 h
same,time by which noribogaine glucuronide was detected in all subjects,"plasma, after 30 mg or 60 mg noribogaine dose",≤ 0.75 h
